Results as given in ChEMBL document CHEMBL3616398, “Recent advances on the synthesis of hepatitis C virus NS5B RNA-dependent RNA-polymerase inhibitors” (Eur J Med Chem, 2015).

Key:
Hepatitis C virus [1] = assay: Antiviral activity against HCV genotype 1b replicon system; type: functional, organism-based, Hepacivirus hominis
[2] = Inhibition of HCV genotype 1b NS5B RNA dependent RNA polymerase assessed as inorganic pyrophosphate generation by luminometry; parameters: species or system Hepatitis C virus subtype 1b
Hepatitis C virus [3] = assay: Antiviral activity against HCV genotype 1b infected in human Ava.5 cells after 3 days assessed as protection from virus-induced cytotoxicity by MTT assay; type: functional, organism-based, Hepacivirus hominis; settings: Ava5, 72 h

| IC50 (Hepatitis C virus [1]) | IC50 [2] | SMILES | EC50 (Hepatitis C virus [3]) |
| --- | --- | --- | --- |
| 8.3 µM | – | Cc1nc2c(s1)CCCn1c-2c(C2CCCCC2)c2ccc(C(=O)O)cc21 | – |
| – | 8.77 µM | O=C(NCCCc1ccccc1)c1nc2ccccc2c(=O)n1O | 17.5 µM |
